According to patent US9221804B2, “Secondary alcohol quinolinyl modulators of RORγt” (Janssen Pharmaceutica NV, priority 2013, dated 2015):
pIC50, pKd: −log10 of the molar value.

How the values were obtained:
[1] = test system: IL-17 production by CD4 T cells; test: Human Th17 Assay; assay type: cell-based; details: human CD4+ T cells under Th17 differentiation, 3 days, IL-17 in supernatant
Excerpt: The human Th17 assay tests the effect of RORγt modulatory compounds on IL-17 production by CD4 T cells under conditions which favor Th17 differentiation.
Total CD4^+ T cells were isolated from the peripheral blood mononuclear cells (PBMC) of healthy donors using a CD4^+ T cell isolation kit II, following the manufacturer's instructions (Miltenyi Biotec). Cells were resuspended in a medium of RPMI-1640 supplemented with 10% fetal bovine serum, penicillin, streptomycin, glutamate, and β-mercaptoethanol and were added to 96-well plates at 1.5×10^5 per 100 μL per well. 50 μL of compound at titrated concentrations in DMSO were added into each well at final DMSO concentration at 0.2%. Cells were incubated for 1 hour, then 50 μL of Th17 cell differentiation medium was added to each well. […] Supernatants were collected and the accumulated IL-17 in culture was measured by using MULTI-SPOT® Cytokine Plate following manufacture's instruction (Meso Scale Discovery). The plate was read using Sector Imager 6000, and IL-17 concentration was extrapolated from the standard curve. The IC50s were determined by GraphPad.

human RORγt LBD = target: T1, human RORγt LBD (Homo sapiens, UniProt P51449); test: RORγt (LBD) Reporter Assay (GAL4 luciferase, HEK293T); assay type: cell-based; details: HEK293T cells; for pIC50: 24 hours with compound
T1 construct: expressed in transfected cells; host or cells: HEK293T
T1 sequence (P51449 258-518): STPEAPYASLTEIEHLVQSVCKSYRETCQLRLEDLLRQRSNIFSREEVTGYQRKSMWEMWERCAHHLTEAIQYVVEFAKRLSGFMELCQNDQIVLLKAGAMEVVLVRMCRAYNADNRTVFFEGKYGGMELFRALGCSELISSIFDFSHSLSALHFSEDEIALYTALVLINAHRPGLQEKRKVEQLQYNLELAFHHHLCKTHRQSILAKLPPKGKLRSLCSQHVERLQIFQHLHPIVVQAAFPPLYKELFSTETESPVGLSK
Experimental: Compounds were assessed for RORgt functional modulation using either the RORgt ligand binding domain (LBD) reporter assay, or the RORgt full-length (FL) reporter assay.
A reporter assay was used to test functional activity of RORγt modulatory compounds on transcriptional activation driven by the RORγt LBD. Cells used in the assay were co-transfected with two constructs. The first construct, pBIND-RORγt LBD, contained the wild type human RORγt LBD fused to the DNA binding domain of the GAL4 protein. The second construct, pGL4.31 (Promega Cat no. C935A), contained multiple GAL4 responsive DNA elements upstream of firefly luciferase. […] The mutant construct was called pBIND-RORγt-AF2.
The pBIND vector contains the GAL4 DNA Binding Domain (GAL4 DBD) and the renilla luciferase gene under control of the SV40 promoter. Renilla luciferase expression serves as a control for transfection efficiency and cell viability.
The reporter assay was performed by transiently transfecting HEK293T cells with 5 μg of pBIND-RORγt LBD or pBIND-RORγt LBD-AF2 and 5 μg pGL4.31 (Promega Cat no. C935A) using Fugene 6 (Invitrogen Cat no. E2691) at a 1:6 ratio of DNA: Fugene 6 in a T-75 flask in which cells were at least 80% confluent. Twenty four hours after bulk transfection, cells were plated into 96-well plates at 50,000 cells/well in phenol-red free DMEM containing 5% Lipid Reduced FCS and Pen/Strep. Six hours after plating, cells were treated with compounds for 24 hours. Media was removed and cells were lysed with 50 μL 1× Glo Lysis Buffer (Promega). Dual Glo Luciferase Reagent (50 μL/well) was then added and firefly luciferase luminescence was read on an Envision after a ten minute incubation. Finally, Stop and Glo reagent (50 μL/well) was added and renilla luciferase luminescence was read on an Envision after a ten minute incubation. To calculate the effect of compounds on RORγt activity, the ratio of firefly to renilla luciferase was determined and plotted against compound concentration. Agonist compounds increase RORγt-driven luciferase expression, and antagonist or inverse agonist compounds decrease luciferase expression.

[2] = target: T2, human RORγt ligand binding domain (RORγt LBD) (Homo sapiens, UniProt P51449); test: RORγt ThermoFluor assay (thermal shift binding affinity); details: 0.065 mg/mL RORγt, pH 7.0; estimated from concentration response curves
T2 construct: His-tag (N); TurboTEV protease cleavage site (ENLYFQG) (N); made in house; host or cells: E. coli (pHIS1, modified pET vector)
T2 sequence (P51449 with tags, fused parts or gaps): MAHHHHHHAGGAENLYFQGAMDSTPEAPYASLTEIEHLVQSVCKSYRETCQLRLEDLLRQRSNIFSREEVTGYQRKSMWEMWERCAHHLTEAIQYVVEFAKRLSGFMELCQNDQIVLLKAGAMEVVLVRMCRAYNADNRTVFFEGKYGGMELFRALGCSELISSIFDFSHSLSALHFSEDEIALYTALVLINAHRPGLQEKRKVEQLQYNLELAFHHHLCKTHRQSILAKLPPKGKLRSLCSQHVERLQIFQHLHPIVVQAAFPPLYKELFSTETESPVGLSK
Experimental: This approach is applicable to a wide variety of systems, and rigorous in theoretical interpretation through quantitation of equilibrium binding constants (KD).
The shift in the melting point described as a ΔTm is proportional to the concentration and affinity of the ligand. The compound potency may be compared as a rank order of either ΔTm values at a single compound concentration or in terms of KD values, estimated from concentration response curves.
ThermoFluor® experiments were carried out using instruments owned by Janssen Research and Discovery, L.L.C. through its acquisition of 3-Dimensional Pharmaceuticals, Inc. 1,8-ANS (Invitrogen) was used as a fluorescent dye. […]
Fluorescence was measured by continuous illumination with UV light (Hamamatsu LC6) supplied via fiber optic and filtered through a band-pass filter (380-400 nm; >6 OD cutoff). Fluorescence emission of the entire 384-well plate was detected by measuring light intensity using a CCD camera (Sensys, Roper Scientific) filtered to detect 500±25 nm, resulting in simultaneous and independent readings of all 384 wells. Images were collected at each temperature, and the sum of the pixel intensity in a given area of the assay plate was recorded versus temperature. […]

| Structure (SMILES) | pIC50 [1] | pIC50 (human RORγt LBD) | pKd [2] | inhibition at 6 µM (human RORγt LBD; HEK-293T, 6 μM compound) |
| --- | --- | --- | --- | --- |
| COc1nc2ccc(C(O)c3cnnn3C)cc2c(Cl)c1Cc1ccc(-n2cccn2)cc1 (single isomer, unassigned) [Example 5b, (3-(4-(1H-Pyrazol-1-yl)benzyl)-4-chloro-2-methoxyquinolin-6-yl)(1-methyl-1H-1,2,3-triazol-5-yl)methanol] | 5.82 | – | – | – |
| COc1nc2ccc(C(O)c3cnc(C)n3C)cc2c(Cl)c1Cc1ccc(F)cc1 (centres unmarked) [Example 8a] | – | < 5.22 | – | – |
| COc1nc2ccc(C(O)c3cnc(C)n3C)cc2c(Cl)c1Cc1ccc(F)cc1 (single isomer, unassigned) [Example 8b] | – | < 5.22 | 6.74 | 31% |
| COc1nc2ccc(C(O)c3cnc(C)n3C)cc2c(Cl)c1Cc1ccc(F)cc1 (single isomer, unassigned) [Example 8c] | – | < 5.22 | 7.02 | – |
| COc1nc2ccc(C(O)c3cnnn3C)cc2c(Cl)c1Cc1ccc(-n2cccn2)cc1 (single isomer, unassigned) [Example 5c, (3-(4-(1H-Pyrazol-1-yl)benzyl)-4-chloro-2-methoxyquinolin-6-yl)(1-methyl-1H-1,2,3-triazol-5-yl)methanol] | 6.21 | – | – | – |
